Assay results reported in US4812465A, “Triazole derivatives for use as antimycotic agents” (CL Pharma Aktiengesellschaft, priority 1986, dated 1989).

Key:
[1] = system: Trichophyton mentagrophytes; assay: In vitro determination of minimum inhibitory concentration (MIC), serial dilution; assay type: cell-based; details: 336 h, pH 6, Trichophyton mentagrophytes, pH 6.0, 22° C., 14 days
In short: (§1)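 Tube broth dilution at pH 6.0, final compound 10-fold below the 100-0.19 μg/ml dilution series, constant DMSO. Inocula about 10^3/ml for yeasts, 10^4/ml for molds and dermatophytes; incubated 22° C for 14 days. MIC is lowest concentration without macroscopically visible growth.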

Mucor mucedo minus = assay: as above; assay type: cell-based; details: Mucor mucedo, 336 h, pH 6, Mucor mucedo minus; pH 6.0, 22° C., 14 days
In short: as §1

Candida tropicalis = assay: as above; assay type: cell-based; details: 336 h, pH 6, Candida tropicalis, pH 6.0, 22° C., 14 days, read-out: MIC C.trop
In short: as §1

Epidermophyton floccosum = assay: as above; assay type: cell-based; details: 336 h, pH 6, Epidermophyton floccosum, pH 6.0, 22° C., 14 days
In short: as §1

Aspergillus fumigatus = assay: as above; assay type: cell-based; details: 20160 min, pH 6
In short: as §1

Absidia ramosa = assay: as above; assay type: cell-based; details: Lichtheimia ramosa, 336 h, pH 6, Absidia ramosa; pH 6.0, 22° C., 14 days
In short: as §1

Microsporum gypseum = assay: as above; assay type: cell-based; details: Nannizzia gypsea, 336 h, pH 6, Microsporum gypseum; pH 6.0, 22° C., 14 days; read-out: MIC Mi.gyp
In short: as §1

Microsporum canis = assay: as above; assay type: cell-based; details: 336 h, pH 6, Microsporum canis, pH 6.0, 22° C., 14 days
In short: as §1

Candida albicans = assay: as above; assay type: cell-based; details: 336 h, pH 6, Candida albicans, pH 6.0, 22° C., 14 days, read-out: MIC C.alb
In short: as §1

Trichophyton rubrum = assay: as above; assay type: cell-based; details: 336 h, pH 6, Trichophyton rubrum, pH 6.0, 22° C., 14 days
In short: as §1

Trichophyton verrucosum = assay: as above; assay type: cell-based; details: 336 h, pH 6, Trichophyton verrucosum, pH 6.0, 22° C., 14 days
In short: as §1

Mucor mucedo plus = assay: as above; assay type: cell-based; details: Mucor mucedo, 336 h, pH 6, Mucor mucedo plus; pH 6.0, 22° C., 14 days
In short: as §1

mice [2] = assay: Determination of the LD50 by i.v. administration; assay type: in vivo; details: i.v. 12.5-100 mg/kg
Procedure: (§2) Determination of the LD50 of 1-(2-(2,4-dichlorophenyl)-2-(3-(4-chlorophenylthio)propylamino)ethyl)-1H-imidazole dihydrochloride (compound No. 96) in mice and rats by i.v. administration. In each case, 0 (0.9% NaCl solution), 12.5, 25.0, 50.0 and 100 mg/kg of body weight were injected i.v. into 5 groups of female and male animals.
(§3) The following clinical signs were observed.

[3] = Determination of the LD50 by i.v. administration; assay type: in vivo; details: in vivo, iv
Procedure: as §2, §3

rats [4] = assay: Determination of the LD50 by i.v. administration; assay type: in vivo; details: i.v. 12.5-100 mg/kg
Procedure: as §2, §3

mice [5] = assay: Determination of the lethal dose on single oral administration; assay type: in vivo; details: for LD100: oral, once
Procedure: (§4) Determination of the lethal dose of 1-(2-(2,4-dichlorophenyl)-2-(3-(4-chlorophenylthio)propylamino)ethyl)-1H-imidazole dihydrochloride (compound No. 96) in mice and rats on administration once.
(§5) In each case, oral doses of 0, 500, 1,000 and 3,000 mg/kg of body weight were administered to four groups of female and male animals.
(§6) (Control: double-distilled water)
as §3

rats [6] = assay: as above; assay type: in vivo; details: for LD100: oral, once
Procedure: as §4, §5, §6, §3

[7] = system: Salmonella typhimurium strains TA 1535, TA 1537, TA 1538, TA 98 and TA 100; assay: Potential to cause gene mutations in Salmonella typhimurium; assay type: cell-based; details: 3.3-1,000 μg/plate
Procedure: Compound No. 96 was investigated for its potential to cause gene mutations in five Salmonella typhimurium strains TA 1535, TA 1537, TA 1538, TA 98 and TA 100.
The following concentrations were tested, both with metabolic activator (S 9 mix) and without metabolic activator.

[8] = oral 0, 500, 1,000 and 3,000 mg/kg

## Cl.Cl.Clc1ccc(SCCCNC(Cn2ccnc2)c2ccc(Cl)cc2Cl)cc1 (centres unmarked) [Compound 96, 1-(2-(2,4-dichlorophenyl)-2-(3-(4-chlorophenylthio)propylamino)ethyl)-1H-imidazole dihydrochloride]
[1]
  MIC: 0.39 µg/mL
Mucor mucedo minus
  MIC: 1.56 µg/mL
Candida tropicalis
  MIC: 0.78 µg/mL
Epidermophyton floccosum
  MIC: 0.19 µg/mL
Aspergillus fumigatus
  MIC Asp.fu.: 0,78 μg/ml
Absidia ramosa
  MIC: 1.56 µg/mL
Microsporum gypseum
  MIC: 0.39 µg/mL
Microsporum canis
  MIC: 0.39 µg/mL
Candida albicans
  MIC: 0.39 µg/mL
Trichophyton rubrum
  MIC: 0.19 µg/mL
Trichophyton verrucosum
  MIC: 0.39 µg/mL
Mucor mucedo plus
  MIC: 1.56 µg/mL
Mice [2]
  clinical signs: Inactivity, necrotic tail
[3]; mouse, mice, female, range in parentheses
  LD50: 84.1 mg/kg
[3]; mouse, mice, male, range in parentheses
  LD50: 42 mg/kg
[3]; rat, rats, female, range in parentheses
  LD50: 56.1 mg/kg
[3]; rat, rats, male
  LD50: 70.7 mg/kg
Rats [4]
  clinical signs: Inactivity, necrotic tail, convulsions
Mice [5]; female
  LD100: > 1,000 mg/kg
Mice [5]; male
  LD100: > 500 mg/kg
Mice [5]; [8]
  clinical signs: Inactivity, convulsions
Rats [6]; female
  LD100: > 500 mg/kg
Rats [6]; male
  LD100: > 1,000 mg/kg
Rats [6]; [8]
  clinical signs: Inactivity, ruffled fur, convulsions
[7]; with metabolic activator (S 9 mix)
  mutagenic activity: No mutagenic activity whatever was observed
[7]; without metabolic activator
  mutagenic activity: No mutagenic activity whatever was observed
